Measured values as given in publication PMC5107132 (European journal of pharmacology, 2016).

Assays:
Wistar rats [1] = settings: ref Savić et al., 2008; cited from earlier work
α2β3γ2 GABAA receptors [2] = target: T1, α2β3γ2 GABAA receptors (Rattus norvegicus, UniProt P18508+P23576); assay: Two-electrode voltage clamp in Xenopus oocytes, α2β3γ2; assay type: cell-based; settings: 200 mg/kg dose
α3β3γ2 GABAA receptors [3] = target: T2, α3β3γ2 GABAA receptors (Rattus norvegicus, UniProt P18508+P20236); assay: Two-electrode voltage clamp in Xenopus oocytes, α3β3γ2; assay type: cell-based; settings: 200 mg/kg dose
α5β3γ2 GABAA receptors [4] = target: T3, α5β3γ2 GABAA receptors (Rattus norvegicus, UniProt P18508+P19969); assay: Two-electrode voltage clamp in Xenopus oocytes, α5β3γ2; assay type: cell-based
[5] = In vitro hydrolytic stability study in rat plasma; assay type: in vitro ADME; settings: for % remaining in plasma (in vitro metabolic stability) / Total plasma concentration (in vitro metabolic stability): rat plasma 37 °C
[6] = Plasma protein and brain tissue binding; assay type: in vitro ADME, rat; settings: rapid equilibrium dialysis
Wistar rats [7] = assay: Rotarod test; assay type: in vivo, rat; settings: 200 mg/kg i.p.; vs. 180 s with control animals; n = 4
α1β3γ2S GABAA receptors = α1β3γ2S GABAA receptors (Rattus norvegicus, UniProt P18508+P62813); settings: read-out: Ki at α1β3γ2 GABAA receptors; ref Savić et al., 2010; cited from earlier work
α2β3γ2S GABAA receptors = α2β3γ2S GABAA receptors (Rattus norvegicus, UniProt P18508+P23576); settings: read-out: Ki at α2β3γ2 GABAA receptors; ref Savić et al., 2010; cited from earlier work
α3β3γ2S GABAA receptors = α3β3γ2S GABAA receptors (Rattus norvegicus, UniProt P18508+P20236); settings: read-out: Ki at α3β3γ2 GABAA receptors; ref Savić et al., 2010; cited from earlier work
α5β3γ2S GABAA receptors [8] = target: T4, α5β3γ2S GABAA receptors (Rattus norvegicus, UniProt P18508+P19969); settings: read-out: Ki at α5β3γ2 GABAA receptors; ref Savić et al., 2010; cited from earlier work
κ opioid receptor (KOR) = κ opioid receptor (KOR) (Homo sapiens, UniProt P41145); settings: read-out: Affinity at KOR; ref B. Roth et al., NIMH Psychoactive Drug Screening Program; cited from earlier work
α1β3γ2 GABAA receptors = α1β3γ2 GABAA receptors (Rattus norvegicus, UniProt P18508+P62813); settings: 100 nM; ref Savić et al., 2010; cited from earlier work
α2β3γ2 GABAA receptors [9] = target: T1, α2β3γ2 GABAA receptors; settings: 100 nM; ref Savić et al., 2010; cited from earlier work
α3β3γ2 GABAA receptors [10] = target: T2, α3β3γ2 GABAA receptors; settings: 100 nM; ref Savić et al., 2010; cited from earlier work
α5β3γ2 GABAA receptors [11] = target: T3, α5β3γ2 GABAA receptors; settings: 100 nM; ref Savić et al., 2010; cited from earlier work
α5β3γ2S GABAA receptors [12] = target: T4, α5β3γ2S GABAA receptors; assay: 3H-flunitrazepam competition binding, α5β3γ2S; settings: ratio of Ki values
[13] = Pharmacokinetic study, plasma and brain concentrations after i.p. injection; settings: rat, 20 min

Compound: C#Cc1ccc2c(c1)C(c1ccccc1F)=N[C@@H](C)c1c(C(=O)OCC)ncn1-2 [SH-053-2′F-S-CH3]
- Median incapacitating dose (rotarod) (Wistar rats [1]): 219 mg/kg

Compound: C#Cc1ccc2c(c1)C(c1ccccc1F)=N[C@H](C)c1c(C(=O)OCC)ncn1-2 [SH-053-2′F-R-CH3]
- Estimated potentiation at α2GABAARs (α2β3γ2 GABAA receptors [2]): 171%
- Estimated potentiation at α3GABAARs (α3β3γ2 GABAA receptors [3]): 155%
- Estimated potentiation of GABA-mediated currents at α5GABAARs (α5β3γ2 GABAA receptors [4]; approximated from estimated free rat brain concentration, 200 mg/kg i.p.): 280%
- Concentration needed to elicit 300% potentiation at α5GABAARs (α5β3γ2 GABAA receptors [4]; read from concentration-response curves of Savić et al., 2010): above 300 nM
- % remaining in plasma (in vitro metabolic stability) ([5]; 0 min): 100%
- Total plasma concentration (in vitro metabolic stability) ([5]; 0 min): 0.5556 µM
- % remaining in plasma (in vitro metabolic stability) ([5]; 30 min): 76.64%
- Total plasma concentration (in vitro metabolic stability) ([5]; 30 min): 0.4258 ± 0.0042 µM
- % remaining in plasma (in vitro metabolic stability) ([5]; 60 min): 62.77%
- Total plasma concentration (in vitro metabolic stability) ([5]; 60 min): 0.3487 ± 0.0040 µM
- % remaining in plasma (in vitro metabolic stability) ([5]; 120 min): 38.27%
- Total plasma concentration (in vitro metabolic stability) ([5]; 120 min): 0.2126 ± 0.0036 µM
- % remaining in plasma (in vitro metabolic stability) ([5]; 240 min): 5.24%
- Total plasma concentration (in vitro metabolic stability) ([5]; 240 min): 0.0291 ± 0.0023 µM
- In vitro metabolic stability during incubation in rat plasma ([5]; rat, plasma): less stable
- Free fraction in brain tissue ([6]; rat brain tissue): 3.87%
- Free fraction in plasma ([6]; rat plasma): 68.55%
- Rotarod, time remaining on the rod (Wistar rats [7]): 154 ± 26 s
- Ki (α1β3γ2S GABAA receptors): 759 nM
- Ki (α2β3γ2S GABAA receptors): 948 nM
- Ki (α3β3γ2S GABAA receptors): 769 nM
- Ki (α5β3γ2S GABAA receptors [8]): 95.2 nM
- Ki (κ opioid receptor (KOR)): 240 nM
- % of control current, α1β3γ2 (α1β3γ2 GABAA receptors): 111 ± 2%
- % of control current, α2β3γ2 (α2β3γ2 GABAA receptors [9]): 124 ± 9%
- % of control current, α3β3γ2 (α3β3γ2 GABAA receptors [10]): 125 ± 8%
- % of control current, α5β3γ2 (α5β3γ2 GABAA receptors [11]): 183 ± 7%
- Selectivity in binding to α5GABAARs compared to α1-containing GABAA receptors (α5β3γ2S GABAA receptors [12]): 8 fold
- Selectivity in binding to α5GABAARs compared to α2-containing GABAA receptors (α5β3γ2S GABAA receptors [12]): 10 fold
- Brain free (estimated) concentration ([13]; 10 mg/kg i.p.): 29.10 ± 5.14 nmol/kg
- Brain total concentration ([13]; 10 mg/kg i.p.): 752.00 ± 132.84 nmol/kg
- Plasma free (estimated) concentration ([13]; 10 mg/kg i.p.): 278.60 ± 52.39 nmol/L
- Plasma total concentration ([13]; 10 mg/kg i.p.): 406.43 ± 76.45 nmol/L
- Brain free (estimated) concentration ([13]; 20 mg/kg i.p.): 38.85 ± 3.39 nmol/kg
- Brain total concentration ([13]; 20 mg/kg i.p.): 1003.57 ± 87.55 nmol/kg
- Plasma free (estimated) concentration ([13]; 20 mg/kg i.p.): 288.32 ± 47.99 nmol/L
- Plasma total concentration ([13]; 20 mg/kg i.p.): 420.63 ± 70.01 nmol/L
- Brain free (estimated) concentration ([13]; 30 mg/kg i.p.): 64.40 ± 14.64 nmol/kg
- Brain total concentration ([13]; 30 mg/kg i.p.): 1663.84 ± 378.29 nmol/kg
- Plasma free (estimated) concentration ([13]; 30 mg/kg i.p.): 380.78 ± 46.73 nmol/L
- Plasma total concentration ([13]; 30 mg/kg i.p.): 555.51 ± 68.18 nmol/L
- Brain free (estimated) concentration ([13]; 150 mg/kg i.p.): 147.74 ± 37.36 nmol/kg
- Brain total concentration ([13]; 150 mg/kg i.p.): 3816.79 ± 965.21 nmol/kg
- Plasma free (estimated) concentration ([13]; 150 mg/kg i.p.): 1100.14 ± 186.36 nmol/L
- Plasma total concentration ([13]; 150 mg/kg i.p.): 1604.96 ± 271.88 nmol/L
- Brain free (estimated) concentration ([13]; 200 mg/kg i.p.): 324.16 ± 89.88 nmol/kg
- Brain total concentration ([13]; 200 mg/kg i.p.): 8374.25 ± 2322.03 nmol/kg
- Plasma free (estimated) concentration ([13]; 200 mg/kg i.p.): 1876.71 ± 196.63 nmol/L
- Plasma total concentration ([13]; 200 mg/kg i.p.): 2737.87 ± 286.86 nmol/L
